Source: PubChem BioAssay AID588764 (Broad Institute, 2011)
Inconclusive results are not listed. Active and inactive are the calls of the source. How the calls were made is not given here.

What follows are compounds tested against Histone acetyltransferase RTT109 (Candida albicans (strain SC5314 / ATCC MYA-2876)) (UniProt Q5AAJ8) (assay: Rtt109/Vps75 acetyltransferase inhibitor potency, dose response, biochemical, cherry-picked hits, plate reader (AID 588764)). Conditions: Rtt109/Vps75 HAT activity.
Sequence of Histone acetyltransferase RTT109 (Candida albicans (strain SC5314 / ATCC MYA-2876)) (Q5AAJ8 whole entry, looked up): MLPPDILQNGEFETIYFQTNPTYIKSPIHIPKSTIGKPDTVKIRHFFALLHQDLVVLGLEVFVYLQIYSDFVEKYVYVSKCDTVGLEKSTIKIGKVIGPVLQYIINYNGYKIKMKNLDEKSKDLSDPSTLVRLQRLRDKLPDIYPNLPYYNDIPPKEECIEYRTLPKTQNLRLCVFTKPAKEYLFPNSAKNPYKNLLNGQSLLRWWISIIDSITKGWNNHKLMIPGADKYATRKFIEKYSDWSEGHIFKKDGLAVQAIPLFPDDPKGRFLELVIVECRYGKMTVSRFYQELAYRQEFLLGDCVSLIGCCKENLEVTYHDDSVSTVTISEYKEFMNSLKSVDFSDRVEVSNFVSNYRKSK
Cc1ccc2c(c1)C1C[N+](C)(CC(=O)c3ccc(Cl)cc3Cl)CCC1N2C(=O)c1ccc(F)cc1 (stereo unspecified) was tested, and the AC50 was 13.4 µM. Work on Oc1c(Cl)cc(Cl)c(Cl)c1Cc1c(O)c(Cl)cc(Cl)c1Cl yielded an AC50 of 5.48 µM. Cc1ccc(/C=C/C(=O)NCc2ccc(S(N)(=O)=O)cc2)o1 was tested, and the AC50 was 10.7 µM. In the case of CCOC(=O)/C=C/S(=O)(=O)c1ccc(NC(C)=O)cc1, the AC50 is reported as 5.88 µM. Compound N#CC1=C(S)N(c2ccccc2)C(c2cccs2)NC1=O (stereo unspecified) has an AC50 of 11.3 µM. With Cc1cc(C)c2c(=O)n(CC(=O)N3CCC(N4CCCCC4)CC3)sc2n1 the AC50 was 4.72 µM. Work on Oc1cc2c(cc1O)C1c3ccc(O)c(O)c3OCC1(O)C2 (stereo unspecified) yielded an AC50 of 6.08 µM. In the case of O=C(O)c1ccccc1NS(=O)(=O)c1cccc(-n2sc3ccccc3c2=O)c1, the AC50 is reported as 3.49 µM. For O=c1c2ccccc2sn1-c1cc(S(=O)(=O)N2CCOCC2)ccc1N1CCOCC1, the AC50 was 3.78 µM. With O=C(c1nnsc1S(=O)c1ccc(Cl)cc1)N1CCOCC1 (stereo unspecified) the AC50 was 6.04 µM. In the case of CC(=O)Nc1ccc(NC(=O)c2nc(S(=O)(=O)Cc3ccccc3)ncc2Cl)cc1, the AC50 is reported as 6.3 µM. CCN(CC)C(=S)SSC(=S)N(CC)CC showed an AC50 of 3.26 µM. O=C(O)c1cccc(-n2sc3ccccc3c2=O)c1 showed an AC50 of 10.5 µM. Compound CCc1ccc(C(=O)CSc2ncn[nH]2)cc1 has an AC50 of 4.11 µM. In the case of CCCC1(c2ccccc2)NC(=O)N(CC(=O)N(C)Cc2c(F)cccc2Cl)C1=O (stereo unspecified), the AC50 is reported as 2.79 µM. In the case of CSS(=O)(=O)c1cccc2cccnc12, the AC50 is reported as 7.95 µM. O=C1OC(NC(=O)c2ccccc2)C(n2cc(CO)nn2)=C1Cl (stereo unspecified) showed an AC50 of 5.2 µM. O=C(COC(=O)c1cnccn1)c1ccc([N+](=O)[O-])cc1 gave an AC50 of 11.4 µM.

Same assay, conditions: Rtt109/Vps75 HAT activity, at 19.5 µM (top of the series)
In the case of CC1(C)C2CCC1(C)C(OCC[N+](C)(C)CC(=O)OC1CCCCC1)C2 (stereo unspecified), the “activity change, negative = inhibition” value is reported as “inactive”. Cc1cc(C)nc(N2CCC(C(=O)Nc3ccc4c(c3)OCCO4)CC2)n1 was tested, and the “activity change, negative = inhibition” value was “inactive”. In the case of CCOc1ccc(N2C(=O)CSC2c2ccncc2)cc1 (stereo unspecified), the “activity change, negative = inhibition” value is reported as “inactive”. O=C(Nc1ccc(F)cc1F)N1CCCC(c2nc(-c3ccc(F)cc3)no2)C1 (stereo unspecified) was tested, and the “activity change, negative = inhibition” value was “inactive”. With O=C(Nc1ccc2oc(-c3ccncc3)nc2c1)c1ccc2c(c1)OCCO2 the “activity change, negative = inhibition” value was “inactive”. With O=C(Nc1ccc(F)cc1)c1c(O)c2c(n(Cc3ccccc3)c1=O)CCCC2 the “activity change, negative = inhibition” value was “inactive”. For O=C(NNc1ccccc1)C(=O)NNS(=O)(=O)c1ccc(CCCl)cc1, the “activity change, negative = inhibition” value was “inactive”. In the case of COc1cccc(-c2ccc(C#N)c(SCC(=O)NCCc3ccc(Cl)cc3)n2)c1, the “activity change, negative = inhibition” value is reported as “inactive”. For N=C1c2ccccc2CN1NC(=O)c1ccccc1, the “activity change, negative = inhibition” value was “inactive”. For COc1ccccc1C(=O)Nc1ccc(OCC(=O)N2CC(C)CC(C)C2)cc1 (stereo unspecified), the “activity change, negative = inhibition” value was “inactive”. Cc1ccc2nc(N(CCCN(C)C)C(=O)c3ccc4c(c3)CCCC4)sc2c1 was tested, and the “activity change, negative = inhibition” value was “inactive”. In the case of CC1CCN(c2ccccc2NC(=O)c2cc([N+](=O)[O-])ccc2N2CCOCC2)CC1, the “activity change, negative = inhibition” value is reported as “inactive”. With O=c1[nH]c2ccccc2c2oc(CCl)nc12 the “activity change, negative = inhibition” value was “inactive”. Cn1c(SCC(=O)NC2CCCCC2)nnc1-c1cccnc1 was tested, and the “activity change, negative = inhibition” value was “inactive”. For O=C(NCCCN1CCCC1=O)c1ccc(OC(F)(F)F)cc1, the “activity change, negative = inhibition” value was “inactive”. O=C(Cc1ccc(F)cc1)Nc1cccc2cccnc12 was tested, and the “activity change, negative = inhibition” value was “inactive”. In the case of CCCC[n+]1c(C)sc2cc(OC)ccc21, the “activity change, negative = inhibition” value is reported as “inactive”. In the case of COc1ccc(CNC(=O)C2(c3ccc(Cl)cc3)CC2)cc1, the “activity change, negative = inhibition” value is reported as “inactive”. O=C(Nc1nc(-c2nc3ccccc3s2)cs1)c1ccc(S(=O)(=O)N2CCOCC2)cc1 was tested, and the “activity change, negative = inhibition” value was “inactive”. In the case of COCCN1Cc2cccc(C(=O)Nc3ccc(-c4nc5ccccc5[nH]4)cc3)c2C1=O, the “activity change, negative = inhibition” value is reported as “inactive”. CC(=O)Nc1nc(-c2ccccc2)c(-c2ccccc2)o1 was tested, and the “activity change, negative = inhibition” value was “inactive”. For CCOC(=O)c1c(CSC(=N)N)n(C)c2cc(Br)c(OC(C)=O)cc12, the “activity change, negative = inhibition” value was “inactive”. For COc1ccc(C(=O)C(CCC(CNC(C)(C)C)C(=O)c2ccc(OC)cc2)CNC(C)(C)C)cc1 (stereo unspecified), the “activity change, negative = inhibition” value was “inactive”. With COc1ccccc1C(=O)NCC(=O)N=Nc1c(O)n(C(C)C)c2ccccc12 the “activity change, negative = inhibition” value was “inactive”. In the case of CC(=O)/C(=N/Nc1ccccc1)Sc1nnc(C(O)c2ccccc2)n1-c1ccccc1 (stereo unspecified), the “activity change, negative = inhibition” value is reported as “inactive”. In the case of Fc1ccc(C2CC(c3ccco3)=Nc3ccccc3S2)cc1 (stereo unspecified), the “activity change, negative = inhibition” value is reported as “inactive”. O=C(O)C(Cc1ccccc1)N1C(=O)/C(=C/c2cccs2)SC1=S (stereo unspecified) was tested, and the “activity change, negative = inhibition” value was “inactive”. In the case of CCc1nnc(NC(=O)CN2C(=O)c3ccccc3C2=O)s1, the “activity change, negative = inhibition” value is reported as “inactive”. For CC(C)(C)C1CCc2c(sc(NC(=O)CSc3nnc(-c4ccccc4)o3)c2C#N)C1 (stereo unspecified), the “activity change, negative = inhibition” value was “inactive”. In the case of CC1CCCCC1N(C)C1CCN(C(=O)CNC(=O)/C=C/c2cccc(Cl)c2)CC1 (stereo unspecified), the “activity change, negative = inhibition” value is reported as “inactive”. In the case of Nc1ccc(Nc2ccncc2[N+](=O)[O-])cc1, the “activity change, negative = inhibition” value is reported as “inactive”. COCCNS(=O)(=O)c1ccc2c(c1)C(=NO)c1cc(S(=O)(=O)NCCOC)ccc1-2 was tested, and the “activity change, negative = inhibition” value was “inactive”. COc1ccc(-n2cnc3scc(-c4ccc(OC)c(OC)c4)c3c2=O)cc1 was tested, and the “activity change, negative = inhibition” value was “inactive”. Cc1cccc(-n2c(O)c(/C=N/NC(=O)c3ccccc3Cl)c3ccccc3c2=O)n1 was tested, and the “activity change, negative = inhibition” value was “inactive”. Clc1ccc(COC(Cn2ccnc2)c2ccc(Cl)cc2Cl)c(Cl)c1 (stereo unspecified) was tested, and the “activity change, negative = inhibition” value was “inactive”. CN(C)CCCN(C(=O)CCOc1ccccc1)c1nc2c(F)cccc2s1 was tested, and the “activity change, negative = inhibition” value was “inactive”. For O=C(NC(=S)Nc1ccc(Oc2ccccc2)cc1)c1ccc(Cl)cc1, the “activity change, negative = inhibition” value was “inactive”. CN(C(=O)c1ccc(N2CCCCC2)c([N+](=O)[O-])c1)C1(C)CCS(=O)(=O)C1 (stereo unspecified) was tested, and the “activity change, negative = inhibition” value was “inactive”. For O=C(O)c1cccc2c1NC(C(=O)O)C1CC(Sc3ccccc3[N+](=O)[O-])C(Cl)C21 (stereo unspecified), the “activity change, negative = inhibition” value was “inactive”. With C[C@H](NC(=O)c1ccco1)C(=O)Nc1ccc(S(=O)(=O)N2CCCC2)cc1 the “activity change, negative = inhibition” value was “inactive”. CCOC(=O)c1c(NC(=O)C[n+]2ccc(Cc3ccccc3)cc2)sc(C)c1C was tested, and the “activity change, negative = inhibition” value was “inactive”. For CCCCCCCCCn1c2c(c(=N)c3c1CCC3)CCC2, the “activity change, negative = inhibition” value was “inactive”. COc1ccccc1CC(=O)N1CCN(S(=O)(=O)c2ccccc2F)CC1 was tested, and the “activity change, negative = inhibition” value was “inactive”. With Cc1ccc(S(=O)(=O)/N=C2\C=C(NS(=O)(=O)c3ccccc3)C(=O)c3ccccc32)cc1 the “activity change, negative = inhibition” value was “inactive”. In the case of CCc1sc(C(=O)Nc2cccc(C(C)=O)c2)cc1C, the “activity change, negative = inhibition” value is reported as “inactive”. CCCCn1c(N)c(N(Cc2ccccc2OC)C(=O)c2sccc2C)c(=O)[nH]c1=O was tested, and the “activity change, negative = inhibition” value was “inactive”. For C#CCOCCOCCOCCNc1nc(N2CCN(C(=O)C([C@@H](C)O)n3cc([C@@H](N)CCCCN)nn3)CC2)nc(N2CCN(C(=O)C([C@@H](C)O)n3cc([C@@H](N)CCCCN)nn3)CC2)n1 (stereo partly specified), the “activity change, negative = inhibition” value was “inactive”. For NC(N)=N/N=C/c1ccc(OCc2ccccc2)c(OCc2ccccc2)c1, the “activity change, negative = inhibition” value was “inactive”. With CCOC(=O)c1ccc(N2C(=O)c3n[nH]c(C)c3C2c2ccc(OC)cc2)cc1 (stereo unspecified) the “activity change, negative = inhibition” value was “inactive”. In the case of O=C(CNC(=O)c1ccncc1)N/N=C/c1cccc([N+](=O)[O-])c1, the “activity change, negative = inhibition” value is reported as “inactive”. With O=C(C1CCOCC1)N1CCCC(N2CCN(c3cccc(C(F)(F)F)c3)CC2)C1 (stereo unspecified) the “activity change, negative = inhibition” value was “inactive”. COC(=O)c1ccc(N2C(=O)CC(SCC(=O)Nc3ccc(OC)cc3)C2=O)cc1 (stereo unspecified) was tested, and the “activity change, negative = inhibition” value was “inactive”. In the case of O=C(CCn1c(=O)c2ccccc2n(Cc2cccc([N+](=O)[O-])c2)c1=O)N1CCc2ccccc2C1, the “activity change, negative = inhibition” value is reported as “inactive”. With O=C(O)CSCC(=O)Nc1cc(C(F)(F)F)ccc1Cl the “activity change, negative = inhibition” value was “inactive”. In the case of Clc1nc(Nc2ccccc2)nc(Nc2ccccc2)n1, the “activity change, negative = inhibition” value is reported as “inactive”. For COc1cc(OC)c(NC(=O)CN(C)S(=O)(=O)c2ccc(-c3ccc(=O)[nH]n3)s2)cc1Cl, the “activity change, negative = inhibition” value was “inactive”. For CC[n+]1c(C)sc2c(C)cc(C)cc21, the “activity change, negative = inhibition” value was “inactive”. Cc1ccc2sc(C)[n+](CCO)c2c1 was tested, and the “activity change, negative = inhibition” value was “inactive”. In the case of COc1ccc(C2CC(=O)C(C=NCCO)=C(O)C2)cc1 (stereo unspecified), the “activity change, negative = inhibition” value is reported as “inactive”. COC(=O)c1c(NC(=O)C2CC(C)=C(C)CC2C(=O)O)sc2c1CCCCC2 (stereo unspecified) was tested, and the “activity change, negative = inhibition” value was “inactive”. For CCOc1cc(/C=N/NC(=O)CSc2nncn2C)ccc1OCc1cccc(C)c1, the “activity change, negative = inhibition” value was “inactive”. With O=C(/C=C/Nc1ccc([N+](=O)[O-])cc1Br)c1cccc2ccccc12 the “activity change, negative = inhibition” value was “inactive”. COc1cc(NC(=O)C(Cc2ccccc2)n2cccc2)cc(OC)c1 (stereo unspecified) was tested, and the “activity change, negative = inhibition” value was “inactive”. CCOC(=O)c1ccc(N=C2C(=S)N(c3ccc(C(=O)OCC)cc3)C(=N)N2/N=C/c2ccccc2)cc1 was tested, and the “activity change, negative = inhibition” value was “inactive”. With C#CCOCCOCCOCCNc1nc(N2CCN(C(=O)[C@H](CCCCN)n3cc([C@@H](N)CC(C)C)nn3)CC2)nc(N2CCN(C(=O)[C@H](CCCCN)n3cc([C@@H](N)CC(C)C)nn3)CC2)n1 the “activity change, negative = inhibition” value was “inactive”. For O=C(COC(=O)Cc1ccccc1[N+](=O)[O-])Nc1nnc(-c2ccccc2)o1, the “activity change, negative = inhibition” value was “inactive”. For CCOC(=O)c1c(C)n(-c2ccc(C)cc2)c2ccc(OCC(O)CNCCCO)cc12 (stereo unspecified), the “activity change, negative = inhibition” value was “inactive”. In the case of Cc1ccc(CN2CCN(CC(=O)NCc3ccccc3)CC2)cc1, the “activity change, negative = inhibition” value is reported as “inactive”. In the case of O=C(CSC1=NC2(CCCCC2)N=C1c1ccccc1)Nc1ccc2c(c1)OCCO2, the “activity change, negative = inhibition” value is reported as “inactive”. In the case of CC(=O)N(c1ccc2oc(=O)sc2c1)S(=O)(=O)c1cccc2cccnc12, the “activity change, negative = inhibition” value is reported as “inactive”. With CCOC(=O)C1=C(C)NC(C)=C(C(=O)OCC)C1C(=O)OCC(=O)NCCc1ccc(S(N)(=O)=O)cc1 the “activity change, negative = inhibition” value was “inactive”. With Cc1ccc(S(=O)(=O)N/N=C\C=C\c2ccccc2)cc1 the “activity change, negative = inhibition” value was “inactive”. CCCn1cc(S(=O)(=O)CC(=O)NC2CCCCC2)c2ccccc21 was tested, and the “activity change, negative = inhibition” value was “inactive”.
